# Source: patent US8552048B2, “Phosphoramidate alkylator prodrugs for the treatment of cancer” (Threshold Pharmaceuticals, Inc., priority 2006, dated 2013)
# “And” between values parts separate entries of the source, which are not always exact repeats. Equal entries are not always repeated. “Also recorded” adds a separate entry of the source. Where two headings read alike, the source gives them in different places.
# Assays:
# [1] = Pharmacokinetics in CD-1 mice; type: in vivo; conditions: male, CD-1, mouse, plasma, ip, 50 mg/kg, 50 mg/kg i.p., read-out: terminal half-lives (t1/2)
# Method: (§1) Pharmacokinetic studies were performed in male CD-1 (50 mg/kg i.p. or orally (p.o.)) or female nude mice (50 mg/kg i.v. or i.p.), male Sprague-Dawley rats (1, 5, 20 and 50 mg/kg i.v. and 100 mg/kg, p.o.), beagle dogs (20 mg/kg, i.v.) and cynomologus monkeys (20 mg/kg i.v.). Plasma TH302 concentrations were analyzed using a LC/MS method and the pharmacokinetic parameters computed using a noncompartmental method. Interspecies scaling was performed according to standard methods.
# [2] = Pharmacokinetics of TH302 in Beagle Dogs (Table 6); type: in vivo; conditions: dog, plasma, intravenous; for half-life: read-out: T½ (converted); for Vd: read-out: Vss
# [3] = tested on: PC-3 human prostate tumor; assay: GFP PC3 prostate orthotopic model; type: in vivo, mice
# [4] = tested on: H460 human non small cell cancer (NSCLC) cells; assay: H460 tumor excision clonogenic assay (surviving fraction) under different oxygen levels; type: in vivo, mice; conditions: single 50 mg/kg i.v., tumors removed 24 h post treatment
# Method: H460 human non small cell cancer (NSCLC) cells were prepared in 30% or 50% matrigel in PRIM medium. Then 2×10^6 cells suspended in 50% matrigel were implanted subcutaneously in the right flank in 35 mice (0.2 mL/mouse), 0.5×10^6 cells suspended in 30% matrigel were similarly implanted in 30 mice. Mice bearing similar sized tumors, preferably ˜300 mm^3 were selected for TH302 administration. TH302 was formulated in saline and a single dose administered intravenously at 50 mg/kg.
# The mice were placed in 95% and 10% O2 chamber for 30 min before the dosing and returned to the chamber for 2 hours immediately after treatment. Twenty-four hours post treatment, tumors were removed. The tumor tissue was minced and obtain single cells were obtained by digesting the minced tissue with an enzyme cocktail for 15 min at 37° C. with stirring, and filtering through a 40 μm sterile mash. Cell numbers were counted by a coulter counter. After a serial dilution, the ells were placed in a 60 or 100 mm Petri dish and incubated at 37° C. for 8 to 10 days for the colonies to form. The colonies were counted after stained with crystal violet (0.25% in 95% ethanol). The plating efficiency (PE) was calculated by dividing the number of colonies formed by the number of cells seeded. The surviving fraction (SF) was calculated by dividing as the PE of treated cells by PE of the cells from saline control.
# [5] = tested on: PC-3 human prostate cells; assay: PC-3 luciferase intracardiac metastasis model (bioluminescence); type: in vivo, nude mice
# Method: Male nude mice were injected into their left ventricle with PC-3 human prostate cells (3×10^6) transfected with the gene for luciferase. The success of the intracardiac transfections was verified by a bioluminescence scan after the injection. On day 14, the mice with established bone tumor burden were randomized into four treatment groups (N=10): Taxotere® alone (20 mg/kg once a week for three weeks, i.v.), TH302 alone (50 mg/kg daily, 5 days a week for 3 weeks), combination treatment with both agents, and vehicle. Bioluminescence imaging was performed under anesthesia using an IVIS 50 optical imaging system.
# [6] = Pharmacokinetics after repeated administration (Q7D×3) to dogs; type: in vivo; conditions: dog; for clearance / half-life / AUC / Cmax / Vd: TH302 in dogs; for half-life: read-out: Half-Life (converted); for Cmax: read-out: Cmax; for Vd: read-out: Vss
# Excerpt: These changes were reversible.
# [7] = Pharmacokinetics in cynomolgus monkeys (20 mg/kg i.v.); type: in vivo; conditions: for Vd: read-out: Vss
# Method: as §1
# Individual and mean pharmacokinetic parameters of TH302 following intravenous administration at a dose of 20 mg/kg (N=3) is shown in Table 7.
# [8] = TH302 alone 50 mg/kg daily, 5 days a week for 3 weeks, end of the study (day 43)
# [9] = in vivo, 16 mg/kg Q7D×3, Day 15
# [10] = plasma, intravenous, 4 mg/kg Q7D×3, Day 15
# [11] = plasma, intravenous, 8 mg/kg Q7D×3, Day 15
# [12] = plasma, intravenous, 16 mg/kg Q7D×3, Day 15
# [13] = cynomolgus monkey, plasma, iv, 20 mg/kg, cynomolgus monkeys, Mean (N=3)
# [14] = cynomolgus monkey, plasma, iv, 20 mg/kg, monkeys
# [15] = cynomolgus monkeys, individual animals, 20 mg/kg
smiles,measurement,setting,value
Cn1c(COP(=O)(NCCBr)NCCBr)cnc1[N+](=O)[O-] [TH302],half-life,[1],7.9 min
same,AUC,"[2]; female, Females, 4 mg/kg",2270 ng·h/mL
same,Cmax,"[2]; female, Females, 4 mg/kg",3830 ng/mL
same,Tmax,"[2]; female, Females, 4 mg/kg",31 min
same,clearance,"[2]; female, Females, 4 mg/kg",29.3 mL/min/kg
same,half-life,"[2]; female, Females, 4 mg/kg",16.1 min
same,Vd,"[2]; female, Females, 4 mg/kg",0.785 L/kg
same,AUC,"[2]; female, Females, 8 mg/kg",3400 ng·h/mL
same,Cmax,"[2]; female, Females, 8 mg/kg",6410 ng/mL
same,Tmax,"[2]; female, Females, 8 mg/kg",31.5 min
same,clearance,"[2]; female, Females, 8 mg/kg",39.7 mL/min/kg
same,half-life,"[2]; female, Females, 8 mg/kg",15.1 min
same,Vd,"[2]; female, Females, 8 mg/kg",0.974 L/kg
same,AUC,"[2]; female, Females, 16 mg/kg",7660 ng·h/mL
same,Cmax,"[2]; female, Females, 16 mg/kg",13700 ng/mL
same,Tmax,"[2]; female, Females, 16 mg/kg",31 min
same,clearance,"[2]; female, Females, 16 mg/kg",34.8 mL/min/kg
same,half-life,"[2]; female, Females, 16 mg/kg",16.7 min
same,Vd,"[2]; female, Females, 16 mg/kg",0.874 L/kg
same,AUC,"[2]; female, Females, 32 mg/kg",9530 ng·h/mL
same,Cmax,"[2]; female, Females, 32 mg/kg",18500 ng/mL
same,Tmax,"[2]; female, Females, 32 mg/kg",31 min
same,clearance,"[2]; female, Females, 32 mg/kg",56.5 mL/min/kg
same,half-life,"[2]; female, Females, 32 mg/kg",15.4 min
same,Vd,"[2]; female, Females, 32 mg/kg",1.37 L/kg
same,AUC,"[2]; male, Males, 4 mg/kg",2330 ng·h/mL
same,Cmax,"[2]; male, Males, 4 mg/kg",4160 ng/mL
same,Tmax,"[2]; male, Males, 4 mg/kg",37 min
same,clearance,"[2]; male, Males, 4 mg/kg",28.3 mL/min/kg
same,half-life,"[2]; male, Males, 4 mg/kg",16.1 min
same,Vd,"[2]; male, Males, 4 mg/kg",0.822 L/kg
same,AUC,"[2]; male, Males, 8 mg/kg",3640 ng·h/mL
same,Cmax,"[2]; male, Males, 8 mg/kg",6350 ng/mL
same,Tmax,"[2]; male, Males, 8 mg/kg",31.5 min
same,clearance,"[2]; male, Males, 8 mg/kg",37.2 mL/min/kg
same,half-life,"[2]; male, Males, 8 mg/kg",15.6 min
same,Vd,"[2]; male, Males, 8 mg/kg",0.982 L/kg
same,AUC,"[2]; male, Males, 16 mg/kg",6200 ng·h/mL
same,Cmax,"[2]; male, Males, 16 mg/kg",10800 ng/mL
same,Tmax,"[2]; male, Males, 16 mg/kg",31.5 min
same,clearance,"[2]; male, Males, 16 mg/kg",43 mL/min/kg
same,half-life,"[2]; male, Males, 16 mg/kg",15.5 min
same,Vd,"[2]; male, Males, 16 mg/kg",1.1 L/kg
same,AUC,"[2]; male, Males, 32 mg/kg",11000 ng·h/mL
same,Cmax,"[2]; male, Males, 32 mg/kg",23000 ng/mL
same,Tmax,"[2]; male, Males, 32 mg/kg",31.5 min
same,clearance,"[2]; male, Males, 32 mg/kg",48.5 mL/min/kg
same,half-life,"[2]; male, Males, 32 mg/kg",14.9 min
same,Vd,"[2]; male, Males, 32 mg/kg",1.12 L/kg
same,reduction in tumor volume,[3]; compared to final measurements in the vehicle group (day 31),84%
same,tumor growth delay (TGD),"[3]; single agent, Taxotere 12 mg/kg once a week for two weeks",16 days
same,mean surviving fraction (SF),[4]; mice breathing 10% O2,2.58%
same,mean surviving fraction (SF),[4]; mice breathing 21% O2,5.76%
same,mean surviving fraction (SF),[4]; mice breathing 95% O2,50.38%
same,"toxicities (weight loss, deaths)","[5]; TH302 50 mg/kg daily 5 days a week for 3 weeks, Taxotere 20 mg/kg once a week for three weeks i.v., or both",minimal weight loss; also recorded: no toxicity beyond Taxotere® related toxicities
same,reduction of bone metastases,[5]; [8],94%
same,reduction of soft tissue tumor burden,[5]; [8],95%
same,clearance,"[6]; in vivo, 4 mg/kg Q7D×3, Day 15",80.7 mL/min/kg
same,half-life,"[6]; in vivo, 4 mg/kg Q7D×3, Day 15",16.3 min
same,clearance,"[6]; in vivo, 8 mg/kg Q7D×3, Day 15",72.5 mL/min/kg
same,half-life,"[6]; in vivo, 8 mg/kg Q7D×3, Day 15",15.2 min
same,AUC,[6]; [9],4260 ng·h/mL
same,clearance,[6]; [9],63.7 mL/min/kg
same,half-life,[6]; [9],17 min
same,AUC,[6]; [10],853 ng·h/mL
same,Cmax,[6]; [10],1580 ng/mL
same,Vd,[6]; [10],2.1 L/kg
same,AUC,[6]; [11],1910 ng·h/mL
same,Cmax,[6]; [11],3650 ng/mL
same,Vd,[6]; [11],1.78 L/kg
same,Cmax,[6]; [12],7100 ng/mL
same,Vd,[6]; [12],1.93 L/kg
same,AUC at 15 day,"[6]; plasma, intravenous, dogs, 8 mg/kg dose of TH302, read-out: drug exposure (AUC of TH302)",~1910 ng·h/mL
same,AUC(0-t),[7]; [13],3140 ng·h/mL
same,clearance,[7]; [13],128 mL/min/kg
same,Cmax,"[7]; cynomolgus monkey, plasma, iv, 20 mg/kg, cynomolgus monkeys, Mean (N=3), read-out: Cmax",20700 ng/mL
same,MRT,"[7]; cynomolgus monkey, plasma, iv, 20 mg/kg, cynomolgus monkeys, Mean (N=3), read-out: MRT",19.8 min
same,Vd,[7]; [13],2.92 L/kg
same,Cmax,"[7]; cynomolgus monkey, plasma, iv, 20 mg/kg, cynomolgus monkeys, individual animals, read-out: Cmax",15900 ng/mL
same,MRT,"[7]; cynomolgus monkey, plasma, iv, 20 mg/kg, cynomolgus monkeys, individual animals, read-out: MRT",28.6 min
same,clearance,[7]; [14],128 mL/min/kg
same,Vd,[7]; [14],2.92 L/kg
same,Tmax,"[7]; cynomolgus monkey, plasma, iv, cynomolgus monkeys, individual animals",1.98 min
same,half-life,"[7]; cynomolgus monkey, plasma, iv, monkeys, read-out: Plasma t1/2",24.9 min
same,Vβ,"[7]; cynomolgus monkeys, Mean (N=3)",6.17 L/kg
same,half-life,"[7]; cynomolgus monkeys, Mean (N=3)",24.9 min
same,AUClast,[7]; [15],1519 ng·h/mL and 3961 ng·h/mL and 3932 ng·h/mL
same,Cl,[7]; [15],13.0 L/h/kg and 4.90 L/h/kg and 5.07 L/h/kg
same,Cmax,[7]; [15],28500 ng/mL and 17600 ng/mL
same,MRT,[7]; [15],14.7 min and 16.1 min
same,Vss,[7]; [15],6.18 L/kg and 1.20 L/kg and 1.36 L/kg
same,Vβ,[7]; [15],15.5 L/kg and 1.37 L/kg and 1.65 L/kg
same,half-life,[7]; [15],49.6 min and 11.6 min and 13.6 min
